# Experimental data: patent publication US8680052B1, “Methods of treating, reducing the incidence of, and/or preventing ischemic events” (The Medicines Company, priority 2013, dated 2014)
# Like-named read-outs stand apart in the source and are kept apart here.
# System: patients with acute coronary syndromes undergoing PCI
# Conditions: for All-cause mortality OR (95% CI) / IDR OR (95% CI) / MI OR (95% CI) / Mortality/MI/IDR OR (95% CI) / Mortality/Q-wave MI/IDR OR (95% CI) / Mortality/Q-wave MI/Stent thrombosis OR (95% CI) / Stent thrombosis OR (95% CI) / Q-wave MI OR (95% CI) / Stroke OR (95% CI): Cangrelor vs Clopidogrel
# [1] = 48-hour, MITT Without STEMI, cangrelor vs clopidogrel
# [2] = 48-hour, MITT Without STEMI, exploratory
# Experimental: Patients were eligible for enrollment if they had stable angina, unstable angina, or non-ST-segment elevation (NSTE) MI with obstructive coronary artery disease and were scheduled to undergo PCI.
# The infusion began within 30 minutes prior to PCI and continued for at least 2 hours or until the conclusion of the index procedure, whichever was longer. At the treating physician's discretion, the infusion could be continued for 4 hours.
# All patients received aspirin 75-325 mg per local site standards. Adjunctive anticoagulants (unfractionated heparin, low molecular weight heparin, bivalirudin, or fondaparinux) and the procedural use of glycoprotein IIb/IIIa inhibitors were determined by the treating physician.
# The primary efficacy endpoint was the 48-hour composite of all-cause mortality, MI, or ischemia-driven revascularization. Prespecified secondary efficacy endpoints included the composite of mortality or MI at 48 hours and 30 days; the composite of mortality, MI, or ischemia-driven revascularization at 30 days; the components of the composite endpoints at 48 hours and 30 days; stroke at 48 hours; abrupt closure, threatened abrupt closure, need for urgent coronary artery bypass grafting, or unsuccessful procedure during the index PCI; acute (24 hours) and 48 hours stent thrombosis; and all-cause mortality at 6 months and 1 year.
# Rates of MI and ischemia-driven revascularization up to 30 days following the index procedure were assessed. Ischemia-driven revascularization was defined as symptoms of myocardial ischemia leading to urgent (within 24 hours of the last episode of ischemia) revascularization, which must have occurred after the index procedure concluded (i.e., guidewire removal). New electrocardiographic changes, acute pulmonary edema, ventricular arrhythmias, or hemodynamic instability could also constitute evidence of ischemia.
# MI was defined by a new Q wave (duration >0.03 seconds) in two contiguous electrocardiographic leads or elevations in creatine kinase (CK) and CK-MB, including a rise of CK-MB≧3 times the local upper limit or normal and, when biomarkers were elevated prior to PCI, an additional 50% above baseline. One baseline troponin measurement was required for patients undergoing urgent PCI. Measurements of CK-MB were obtained at 2, 10, 17, and 24 hours post-PCI.
# The primary efficacy analysis was to be determined in the modified intent-to-treat (mITT) population, defined as all randomized patients (excluding STEMI cohort) who received at least one dose of study drug and underwent the index PCI. The safety population consisted of all randomized patients who received any study drug. Patients in the safety analyses were assigned to a treatment arm based on treatment received, not as randomized.
smiles,measurement,setting,value
"CSCCNc1nc(SCCC(F)(F)F)nc2c1ncn2[C@@H]1O[C@H](COP(=O)(O)OP(=O)(O)C(Cl)(Cl)P(=O)(O)O)[C@@H](O)[C@H]1O [Cangrelor, cangrelor]",All-cause mortality,"48-hour, MITT Without STEMI",8 (0.2)
same,IDR,"48-hour, MITT Without STEMI",13 (0.3)
same,MI,"48-hour, MITT Without STEMI",278 (7.1)
same,Mortality/MI/IDR (primary endpoint),"48-hour, MITT Without STEMI",290 (7.5)
same,Q-wave MI,"48-hour, MITT Without STEMI",4 (0.1)
same,Stent thrombosis,"48-hour, MITT Without STEMI",7 (0.2)
same,Stroke,"48-hour, MITT Without STEMI",6 (0.2)
same,OR (95% CI): All-cause mortality,[1],"1.59 (0.52, 4.87)"
same,OR (95% CI): IDR,[1],"0.56 (0.28, 1.11)"
same,OR (95% CI): MI,[1],"1.09 (0.91, 1.29)"
same,OR (95% CI): Mortality/Q-wave MI/IDR,[1],"0.67 (0.39, 1.14)"
same,OR (95% CI): Mortality/Q-wave MI/Stent thrombosis,[1],"0.78 (0.42, 1.44)"
same,OR (95% CI): Q-wave MI,[1],"0.40 (0.12, 1.27)"
same,OR (95% CI): Stent thrombosis,[1],"0.63 (0.25, 1.63)"
same,OR (95% CI): Stroke,[1],"0.85 (0.29, 2.54)"
same,Mortality/Q-wave MI/IDR,[2],23 (0.6)
same,Mortality/Q-wave MI/Stent thrombosis,[2],18 (0.5)
same,All-cause mortality,"48 hours, ITT",9 (0.2) no. (%)
same,IDR,"48 hours, ITT",21 (0.5) no. (%)
same,MI,"48 hours, ITT",294 (6.7) no. (%)
same,Mortality/MI/IDR,"48 hours, ITT",312 (7.1) no. (%)
same,Mortality/Q-wave MI/IDR,"48 hours, ITT",32 (0.7) no. (%)
same,Mortality/Q-wave MI/Stent thrombosis,"48 hours, ITT",23 (0.5) no. (%)
same,Q-wave MI,"48 hours, ITT",4 (0.1) no. (%)
same,Stent thrombosis,"48 hours, ITT",11 (0.2) no. (%)
same,Stroke,"48 hours, ITT",6 (0.1) no. (%)
same,All-cause mortality,"48 hours, ITT With STEMI",1 (0.2) no. (%)
same,IDR,"48 hours, ITT With STEMI",6 (1.2) no. (%)
same,MI,"48 hours, ITT With STEMI",16 (3.3) no. (%)
same,Mortality/MI/IDR,"48 hours, ITT With STEMI",20 (4.1) no. (%)
same,Mortality/Q-wave MI/IDR,"48 hours, ITT With STEMI",7 (1.5) no. (%)
same,Mortality/Q-wave MI/Stent thrombosis,"48 hours, ITT With STEMI",5 (1.0) no. (%)
same,Q-wave MI,"48 hours, ITT With STEMI",0 (0.0) no. (%)
same,Stent thrombosis,"48 hours, ITT With STEMI",4 (0.8) no. (%)
same,Stroke,"48 hours, ITT With STEMI",0 (0.0) no. (%)
same,All-cause mortality OR (95% CI),"48 hours, ITT With STEMI","0.209 (0.024, 1.793)"
same,IDR OR (95% CI),"48 hours, ITT With STEMI","0.786 (0.271, 2.283)"
same,MI OR (95% CI),"48 hours, ITT With STEMI","1.900 (0.831, 4.341)"
same,Mortality/MI/IDR OR (95% CI),"48 hours, ITT With STEMI","1.054 (0.560, 1.985)"
same,Mortality/Q-wave MI/IDR OR (95% CI),"48 hours, ITT With STEMI","0.560 (0.222, 1.416)"
same,Mortality/Q-wave MI/Stent thrombosis OR (95% CI),"48 hours, ITT With STEMI","0.580 (0.193, 1.743)"
same,Stent thrombosis OR (95% CI),"48 hours, ITT With STEMI","1.052 (0.262, 4.321)"
same,All-cause mortality,"48 hours, ITT Without STEMI",8 (0.2) no. (%)
same,IDR,"48 hours, ITT Without STEMI",15 (0.4) no. (%)
same,MI,"48 hours, ITT Without STEMI",278 (7.1) no. (%)
same,Mortality/MI/IDR,"48 hours, ITT Without STEMI",292 (7.4) no. (%)
same,Mortality/Q-wave MI/IDR,"48 hours, ITT Without STEMI",25 (0.6) no. (%)
same,Mortality/Q-wave MI/Stent thrombosis,"48 hours, ITT Without STEMI",18 (0.5) no. (%)
same,Q-wave MI,"48 hours, ITT Without STEMI",4 (0.1) no. (%)
same,Stent thrombosis,"48 hours, ITT Without STEMI",7 (0.2) no. (%)
same,Stroke,"48 hours, ITT Without STEMI",6 (0.2) no. (%)
same,All-cause mortality OR (95% CI),"48 hours, ITT Without STEMI","1.331 (0.461, 3.839)"
same,IDR OR (95% CI),"48 hours, ITT Without STEMI","0.649 (0.338, 1.246)"
same,MI OR (95% CI),"48 hours, ITT Without STEMI","1.090 (0.914, 1.299)"
same,Mortality/MI/IDR OR (95% CI),"48 hours, ITT Without STEMI","1.056 (0.890, 1.252)"
same,Mortality/Q-wave MI/IDR OR (95% CI),"48 hours, ITT Without STEMI","0.711 (0.425, 1.190)"
same,Mortality/Q-wave MI/Stent thrombosis OR (95% CI),"48 hours, ITT Without STEMI","0.747 (0.405, 1.379)"
same,Q-wave MI OR (95% CI),"48 hours, ITT Without STEMI","0.398 (0.125, 1.272)"
same,Stent thrombosis OR (95% CI),"48 hours, ITT Without STEMI","0.634 (0.246, 1.638)"
same,Stroke OR (95% CI),"48 hours, ITT Without STEMI","0.855 (0.287, 2.546)"
same,All-cause mortality OR (95% CI),"48 hours, ITT","0.821 (0.340, 1.983)"
same,IDR OR (95% CI),"48 hours, ITT","0.678 (0.389, 1.182)"
same,MI OR (95% CI),"48 hours, ITT","1.122 (0.945, 1.331)"
same,Mortality/MI/IDR OR (95% CI),"48 hours, ITT","1.058 (0.898, 1.248)"
same,Mortality/Q-wave MI/IDR OR (95% CI),"48 hours, ITT","0.667 (0.425, 1.045)"
same,Mortality/Q-wave MI/Stent thrombosis OR (95% CI),"48 hours, ITT","0.698 (0.409, 1.191)"
same,Q-wave MI OR (95% CI),"48 hours, ITT","0.401 (0.126, 1.279)"
same,Stent thrombosis OR (95% CI),"48 hours, ITT","0.735 (0.337, 1.603)"
same,Stroke OR (95% CI),"48 hours, ITT","0.752 (0.261, 2.170)"
